The values below come from ChEMBL document CHEMBL4806970, “Degraders of cyclin-dependent kinase 12 (cdk12) and uses thereof” (2020).

Values joined by “and” are separate entries in the source; they are usually repeats but may differ in a detail not shown here. Identical values can stand only once. Active and inactive are the calls of the source. The rule behind the calls is not given here.

Data set [1] deals with T1, Protein cereblon/Cyclin-dependent kinase 12 (Homo sapiens) (UniProt Q9NYV4+Q96SW2). Put plainly: PROTAC activity at CRBN/CDK12 in human Jurkat cells assessed as induction of CDK12 degradation at 100 nM incubated for 6 hrs by western blot analysis. It is filed as cell-based. In general terms: Immunoblotting shows a protein as a band on a membrane.
T1 sequence (Q96SW2 whole entry, looked up): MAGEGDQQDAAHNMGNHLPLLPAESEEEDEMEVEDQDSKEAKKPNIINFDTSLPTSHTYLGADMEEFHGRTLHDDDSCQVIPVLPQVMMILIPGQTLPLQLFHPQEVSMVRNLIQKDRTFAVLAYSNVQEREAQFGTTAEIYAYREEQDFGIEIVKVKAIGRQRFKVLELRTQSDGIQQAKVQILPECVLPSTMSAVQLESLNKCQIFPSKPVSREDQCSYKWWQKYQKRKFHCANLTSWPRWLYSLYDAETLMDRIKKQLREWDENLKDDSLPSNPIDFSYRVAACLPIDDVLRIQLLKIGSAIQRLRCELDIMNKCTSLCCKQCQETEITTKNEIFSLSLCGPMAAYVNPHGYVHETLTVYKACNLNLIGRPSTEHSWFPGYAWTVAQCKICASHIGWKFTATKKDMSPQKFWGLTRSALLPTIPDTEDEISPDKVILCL
T1 sequence (Q9NYV4 whole entry, looked up): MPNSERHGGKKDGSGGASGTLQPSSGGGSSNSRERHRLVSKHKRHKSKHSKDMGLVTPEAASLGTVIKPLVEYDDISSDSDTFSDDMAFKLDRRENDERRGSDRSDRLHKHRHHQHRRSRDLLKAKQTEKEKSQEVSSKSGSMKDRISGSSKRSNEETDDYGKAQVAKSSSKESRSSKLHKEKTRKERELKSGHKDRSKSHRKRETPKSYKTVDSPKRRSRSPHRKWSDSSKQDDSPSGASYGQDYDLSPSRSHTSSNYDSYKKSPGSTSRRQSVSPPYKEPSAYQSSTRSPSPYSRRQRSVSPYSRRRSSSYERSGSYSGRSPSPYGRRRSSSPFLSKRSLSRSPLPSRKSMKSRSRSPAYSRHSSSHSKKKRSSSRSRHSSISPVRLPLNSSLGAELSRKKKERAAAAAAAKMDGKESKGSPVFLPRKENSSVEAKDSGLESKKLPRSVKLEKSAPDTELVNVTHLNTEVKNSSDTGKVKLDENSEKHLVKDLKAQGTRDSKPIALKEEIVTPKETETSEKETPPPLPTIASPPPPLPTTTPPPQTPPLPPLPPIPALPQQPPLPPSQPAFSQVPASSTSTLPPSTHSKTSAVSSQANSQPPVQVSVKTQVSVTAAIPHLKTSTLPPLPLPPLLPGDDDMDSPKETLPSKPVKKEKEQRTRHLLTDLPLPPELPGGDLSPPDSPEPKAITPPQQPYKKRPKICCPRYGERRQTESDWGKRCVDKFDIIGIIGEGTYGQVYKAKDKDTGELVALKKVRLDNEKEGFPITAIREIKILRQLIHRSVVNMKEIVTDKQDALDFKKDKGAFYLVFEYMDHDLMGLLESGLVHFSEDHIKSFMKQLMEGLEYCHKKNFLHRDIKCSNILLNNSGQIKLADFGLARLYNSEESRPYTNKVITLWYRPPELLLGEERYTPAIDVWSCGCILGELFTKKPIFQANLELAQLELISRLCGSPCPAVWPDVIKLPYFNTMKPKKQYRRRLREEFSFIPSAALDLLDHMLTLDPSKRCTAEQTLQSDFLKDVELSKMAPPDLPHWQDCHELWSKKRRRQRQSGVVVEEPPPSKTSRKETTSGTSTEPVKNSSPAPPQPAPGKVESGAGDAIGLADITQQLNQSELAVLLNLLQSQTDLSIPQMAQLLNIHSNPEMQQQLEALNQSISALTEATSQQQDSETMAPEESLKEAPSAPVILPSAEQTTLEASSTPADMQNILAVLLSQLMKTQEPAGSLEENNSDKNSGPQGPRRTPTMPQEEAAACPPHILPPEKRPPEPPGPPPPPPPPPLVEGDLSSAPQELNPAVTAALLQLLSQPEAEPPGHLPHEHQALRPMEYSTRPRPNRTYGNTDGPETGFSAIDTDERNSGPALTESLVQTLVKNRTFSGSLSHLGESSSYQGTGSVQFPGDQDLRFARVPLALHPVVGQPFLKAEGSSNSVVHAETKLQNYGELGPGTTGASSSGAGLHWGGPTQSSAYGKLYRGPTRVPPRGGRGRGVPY
A short description of data set [2]: AUC (extrapolated) in C57BL/6 mouse at 2 mg/kg, iv measured up to 8 hrs post-dosing. Conditions: in vivo. It is filed as ADME, organism-based.
The nature of data set [3]: AUC(infinity) in C57BL/6 mouse at 2 mg/kg, iv measured up to 8 hrs post-dosing. As to conditions: in vivo. Also noted: route intravenous, dose 2 mg/kg, time <=8. It is filed as ADME, organism-based.
Data set [4] can be described thus: AUClast in C57BL/6 mouse at 2 mg/kg, iv measured up to 8 hrs post-dosing. It is filed as ADME, organism-based. Also noted: route intravenous, dose 2 mg/kg, time <=8. As to conditions: in vivo.
A short description of data set [5]: Half life in C57BL/6 mouse at 2 mg/kg, iv measured up to 8 hrs post-dosing. In kind it is ADME, organism-based. Conditions: in vivo.
The nature of data set [6]: Cmax in C57BL/6 mouse at 2 mg/kg, iv measured up to 8 hrs post-dosing. It is filed as ADME, organism-based. Also noted: route intravenous, dose 2 mg/kg, time <=8. As to conditions: in vivo.
Data set [7] addresses T1, Protein cereblon/Cyclin-dependent kinase 12 (Homo sapiens). The data set is described as follows: PROTAC activity at CRBN/CDK12 in human Jurkat cells assessed as induction of CDK12 degradation up to 500 nM incubated for 6 hrs by western blot analysis. It is filed as cell-based. Conditions: dose nM <=500, time 6.0 hrs.

As for `CC(C)S(=O)(=O)c1ccccc1Nc1nc(N[C@@H]2CCCN(CCCCCCCNC(=O)COc3cccc4c3C(=O)N(C3CCC(=O)NC3=O)C4=O)C2)ncc1Cl` (some centres not stated), the Activity in data set [1] was determined as 90%. Regarding `O=C(COc1cccc2c1C(=O)N(C1CCC(=O)NC1=O)C2=O)NCCCCCN1CCN(c2ccc(C(=O)N3CCC[C@@H](Nc4ncc(Cl)c(-c5c[nH]c6ccccc56)n4)C3)cc2)CC1` (some centres not stated), the Activity in data set [1] is 80%. Consider `Cc1ncsc1-c1ccc([C@H](C)NC(=O)[C@@H]2C[C@@H](O)CN2C(=O)[C@@H](NC(=O)CCCCCCCCCCN2CCC[C@@H](Nc3ncc(Cl)c(Nc4ccccc4S(=O)(=O)C(C)C)n3)C2)C(C)(C)C)cc1`, for which, in data set [2], the “%AUCextra” value is recorded as 6.27%. Also, the AUC(0-inf) (usually total exposure, with the tail of the curve extrapolated) in data set [3] was 6140 ng·h/mL. In addition, the AUC(0-t) (usually exposure summed from dosing to a finite time, without extrapolation to infinity) at 8 h in data set [4] is 5720 ng·h/mL and 5.61 µM·h. Further, the Activity in data set [1] was found to be 90%. The half-life – broadly, the time in which the quantity being followed falls by half – in data set [5] is 2.21 h. The Cmax (in general, the peak of the concentration-time curve) in data set [6] is 4570 ng/mL and 4.49 µM. `O=C(COc1cccc2c1C(=O)N(C1CCC(=O)NC1=O)C2=O)NCCCCCC(=O)N1CCC[C@@H](Nc2ncc(Cl)c(-c3c[nH]c4ccccc34)n2)C1` (some centres not stated): in data set [7], the outcome was inactive. Consider `O=C(COc1cccc2c1C(=O)N(C1CCC(=O)NC1=O)C2=O)NCCOCCOCCC(=O)N1CCC[C@@H](Nc2ncc(Cl)c(-c3c[nH]c4ccccc34)n2)C1` (some centres not stated), for which the result in data set [7] was inactive. For the compound `O=C(COc1cccc2c1C(=O)N(C1CCC(=O)NC1=O)C2=O)NCCOCCOCCOCCN1CCC[C@@H](Nc2ncc(Cl)c(-c3c[nH]c4ccccc34)n2)C1` (some centres not stated), the Activity in data set [1] came to 80%. In the case of `O=C(COc1cccc2c1C(=O)N(C1CCC(=O)NC1=O)C2=O)NCCOCCOCCN1CCC[C@@H](Nc2ncc(Cl)c(-c3c[nH]c4ccccc34)n2)C1` (some centres not stated), the outcome in data set [7] was inactive.

For `O=C(COc1cccc2c1C(=O)N(C1CCC(=O)NC1=O)C2=O)NCCCCCCN1CCC(C(=O)N2CCC[C@@H](Nc3ncc(Cl)c(-c4c[nH]c5ccccc45)n3)C2)CC1` (some centres not stated), the Activity in data set [1] is 80%. `O=C(COc1cccc2c1C(=O)N(C1CCC(=O)NC1=O)C2=O)NCCCCCCN1CCC[C@@H](Nc2ncc(Cl)c(-c3c[nH]c4ccccc34)n2)C1` (some centres not stated): in data set [1], the Activity was 80%. In the case of `O=C(COc1cccc2c1C(=O)N(C1CCC(=O)NC1=O)C2=O)NCCCCCCCN1CCN(c2cccc(C(=O)N3CCC[C@@H](Nc4ncc(Cl)c(-c5c[nH]c6ccccc56)n4)C3)c2)CC1` (some centres not stated), in data set [7], the outcome was inactive. As for `O=C(COc1cccc2c1C(=O)N(C1CCC(=O)NC1=O)C2=O)NCCCN1CCN(c2ccc(C(=O)N3CCC[C@@H](Nc4ncc(Cl)c(-c5c[nH]c6ccccc56)n4)C3)cc2)CC1` (some centres not stated), the Activity in data set [1] amounted to 60%. For the compound `O=C(COc1cccc2c1C(=O)N(C1CCC(=O)NC1=O)C2=O)NCCCCCCCN1CCC(C(=O)N2CCC[C@@H](Nc3ncc(Cl)c(-c4c[nH]c5ccccc45)n3)C2)CC1` (some centres not stated), the Activity in data set [1] is 80%.

For the compound `O=C(COc1cccc2c1C(=O)N(C1CCC(=O)NC1=O)C2=O)NCCCCCN1CCC[C@@H](Nc2ncc(Cl)c(-c3c[nH]c4ccccc34)n2)C1` (some centres not stated), in data set [7], the outcome was inactive. `O=C(COc1cccc2c1C(=O)N(C1CCC(=O)NC1=O)C2=O)NCCCCCCCN1CCC[C@@H](Nc2ncc(Cl)c(-c3c[nH]c4ccccc34)n2)C1` (some centres not stated): the Activity in data set [1] is 90%. Consider `Cc1ncsc1-c1ccc([C@H](C)NC(=O)[C@H]2C[C@H](O)CN2C(=O)[C@@H](NC(=O)CCCCCCCCCCN2CCC[C@@H](Nc3ncc(Cl)c(Nc4ccccc4S(=O)(=O)C(C)C)n3)C2)C(C)(C)C)cc1`, for which the result in data set [7] was inactive. For the compound `O=C(COc1cccc2c1C(=O)N(C1CCC(=O)NC1=O)C2=O)NCCCCN1CCC[C@@H](Nc2ncc(Cl)c(-c3c[nH]c4ccccc34)n2)C1` (some centres not stated), the result in data set [7] was inactive. As to `Cc1ncsc1-c1ccc([C@H](C)NC(=O)[C@@H]2C[C@@H](O)CN2C(=O)[C@@H](NC(=O)CCOCCOCCOCCN2CCC[C@@H](Nc3ncc(Cl)c(Nc4ccccc4S(=O)(=O)C(C)C)n3)C2)C(C)(C)C)cc1`, the Activity in data set [1] turned out to be 90%.
